From US20250230193A1, “CYCLIC COMPOUND HAVING SELECTIVE KRAS INHIBITORY EFFECT ON HRAS AND NRAS” (CHUGAI SEIYAKU KABUSHIKI KAISHA, priority 2022, published 2025)
Where a SMILES comes first, the peptide text is derived from it. Bridges are numbered along the chain shown (N, C = ends). [ ]: non-standard residue; d: D form. The star is where a group is joined. hPhe(3-Cl-4-CF3) = N[C@@H](CCc1ccc(C(F)(F)F)c(Cl)c1)C(=O)O; NPrPhe(4-CF3) = CCCN[C@@H](Cc1ccc(C(F)(F)F)cc1)C(=O)O; Pro(4-spirocPr) = O=C(O)[C@@H]1CC2(CC2)CN1; Abu(4,4,4-F3) = N[C@@H](CC(F)(F)F)C(=O)O; Morpholine(3S-CO) = O=C(O)[C@@H]1COCCN1; Pip(4,4-F2) = O=C(O)[C@@H]1CC(F)(F)CCN1; NMeGly(cPent) = CN[C@H](C(=O)O)C1CCCC1; Gly(cPent) = N[C@H](C(=O)O)C1CCCC1; Hyp = O=C(O)[C@@H]1C[C@@H](O)CN1; Gly(cBu) = N[C@H](C(=O)O)C1CCC1; NMeD = CN[C@@H](CC(=O)O)C(=O)O; NMeL = CN[C@@H](CC(C)C)C(=O)O; hPip = O=C(O)[C@@H]1CCCCCN1; Morpholide = C1CN(*)CCO1; NMeA = CN[C@@H](C)C(=O)O; Ac5c = NC1(C(=O)O)CCCC1; Aze = O=C(O)[C@@H]1CCN1; Abu = CC[C@H](N)C(=O)O; NPrGly = CCCNCC(=O)O; NEtG = CCNCC(=O)O; Sar = CNCC(=O)O

Assays:
[1] = target: GDP-bound NRAS wild-type protein (Homo sapiens, UniProt P01111); assay: Binding to NRAS by surface plasmon resonance (SPR), Single Cycle Kinetics; conditions: KD ratio NRAS/KRAS, SPR
GDP-bound NRAS wild-type protein, sequence (P01111 whole entry): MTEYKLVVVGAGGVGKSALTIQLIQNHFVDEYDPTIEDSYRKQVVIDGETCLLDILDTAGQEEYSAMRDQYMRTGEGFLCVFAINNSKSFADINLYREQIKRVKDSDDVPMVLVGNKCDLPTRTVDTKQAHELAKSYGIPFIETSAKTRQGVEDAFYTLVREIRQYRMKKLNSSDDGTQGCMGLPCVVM

[2] = target: GDP-bound HRAS wild-type protein (Homo sapiens, UniProt P01112); assay: Binding to HRAS by surface plasmon resonance (SPR), Single Cycle Kinetics; conditions: KD ratio HRAS/KRAS, SPR
GDP-bound HRAS wild-type protein, sequence (P01112 whole entry): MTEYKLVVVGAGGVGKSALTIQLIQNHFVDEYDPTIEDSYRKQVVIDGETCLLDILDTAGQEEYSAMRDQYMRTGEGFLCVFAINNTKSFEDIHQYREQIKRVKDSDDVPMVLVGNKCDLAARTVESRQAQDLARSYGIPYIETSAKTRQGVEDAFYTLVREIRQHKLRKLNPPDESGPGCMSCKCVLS

Structure (SMILES)	NRAS/KRAS (ratio of KD for GDP-bound NRAS wild-type to KD for KRAS) [1]	HRAS/KRAS (ratio of KD for GDP-bound HRAS wild-type to KD for KRAS) [2]
CCCN1C(=O)[C@@H]2CCN2C(=O)[C@H](C)N(C)C(=O)[C@H]([C@@H](C)CC)NC(=O)[C@H](CC(C)C)N(C)C(=O)C[C@@H](C(=O)N2CCOCC2)N(C)C(=O)[C@H](C2CCCC2)N(C)C(=O)C2(CCCC2)NC(=O)[C@@H]2CC(F)(F)CCN2C(=O)[C@H](CCc2ccc(C(F)(F)F)c(Cl)c2)NC(=O)CN(C)C(=O)[C@@H]1Cc1ccc(C(F)(F)F)cc1 [PP0285] ([NMeL]I[NMeA][Aze][NPrPhe(4-CF3)][Sar][hPhe(3-Cl-4-CF3)][Pip(4,4-F2)][Ac5c][NMeGly(cPent)][NMeD]-Morpholide; lactam N-11)	C (A compound having a KD ratio of 0.1 or more and less than 3 is denoted as C)	B (a compound having 3 or more and less than 10 is denoted as B)
CCCN1C(=O)[C@@H]2CCN2C(=O)[C@H](C)N(C)C(=O)[C@H]([C@@H](C)CC)NC(=O)[C@H](CC(C)C)N(C)C(=O)C[C@@H](C(=O)N2CCOCC2)N(C)C(=O)[C@H](C2CCCC2)N(C)C(=O)C2(CCCC2)NC(=O)[C@@H]2COCCN2C(=O)[C@H](CCc2ccc(C(F)(F)F)c(Cl)c2)NC(=O)CN(C)C(=O)[C@@H]1Cc1ccc(C(F)(F)F)cc1 [PP0286] ([NMeL]I[NMeA][Aze][NPrPhe(4-CF3)][Sar][hPhe(3-Cl-4-CF3)][Morpholine(3S-CO)][Ac5c][NMeGly(cPent)][NMeD]-Morpholide; lactam N-11)	C (A compound having a KD ratio of 0.1 or more and less than 3 is denoted as C)	B (a compound having 3 or more and less than 10 is denoted as B)
CCCN1C(=O)[C@@H]2CCN2C(=O)[C@H](C)N(C)C(=O)[C@H]([C@@H](C)CC)NC(=O)[C@H](CC(C)C)N(C)C(=O)C[C@@H](C(=O)N2CCOCC2)N(C)C(=O)[C@H](C2CCCC2)N(C)C(=O)C2(CCCC2)NC(=O)CN(C)C(=O)[C@H](CCc2ccc(C(F)(F)F)c(Cl)c2)NC(=O)CN(C)C(=O)[C@@H]1Cc1ccc(C(F)(F)F)cc1 [PP0287] ([NMeL]I[NMeA][Aze][NPrPhe(4-CF3)][Sar][hPhe(3-Cl-4-CF3)][Sar][Ac5c][NMeGly(cPent)][NMeD]-Morpholide; lactam N-11)	C (A compound having a KD ratio of 0.1 or more and less than 3 is denoted as C)	C (A compound having a KD ratio of 0.1 or more and less than 3 is denoted as C)
CCCN1CC(=O)NC2(CCCC2)C(=O)N(C)[C@@H](C2CCCC2)C(=O)N(C)[C@H](C(=O)N2CCOCC2)CC(=O)N(C)[C@@H](CC(C)C)C(=O)N[C@@H]([C@@H](C)CC)C(=O)N(C)[C@@H](C)C(=O)N2CC[C@H]2C(=O)N(CCC)[C@@H](Cc2ccc(C(F)(F)F)cc2)C(=O)N(C)CC(=O)N[C@@H](CCc2ccc(C(F)(F)F)c(Cl)c2)C1=O [PP0288] ([NMeL]I[NMeA][Aze][NPrPhe(4-CF3)][Sar][hPhe(3-Cl-4-CF3)][NPrGly][Ac5c][NMeGly(cPent)][NMeD]-Morpholide; lactam N-11)	C (A compound having a KD ratio of 0.1 or more and less than 3 is denoted as C)	B (a compound having 3 or more and less than 10 is denoted as B)
CCCN1C(=O)CN(C)C(=O)CN(CC)C(=O)[C@H]([C@@H](C)CC)NC(=O)[C@@H]2CCCCCN2C(=O)C[C@@H](C(=O)N2CCOCC2)N(C)C(=O)[C@H](C2CCCC2)N(C)C(=O)C2(CCCC2)NC(=O)[C@@H]2CCCN2C(=O)[C@H](CCc2ccc(C(F)(F)F)c(Cl)c2)NC(=O)CN(C)C(=O)[C@@H]1Cc1ccc(C(F)(F)F)cc1 [PP0289] ([hPip]I[NEtG][Sar][NPrPhe(4-CF3)][Sar][hPhe(3-Cl-4-CF3)]P[Ac5c][NMeGly(cPent)][NMeD]-Morpholide; lactam N-11)	B (a compound having 3 or more and less than 10 is denoted as B)	B (a compound having 3 or more and less than 10 is denoted as B)
CCCN1C(=O)CN(C)C(=O)CN(CC)C(=O)[C@H](CC)NC(=O)[C@H](CC(C)C)N(C)C(=O)C[C@@H](C(=O)N2CCOCC2)N(C)C(=O)[C@H](C2CCCC2)N(C)C(=O)C2(CCCC2)NC(=O)[C@@H]2CCCN2C(=O)[C@H](CCc2ccc(C(F)(F)F)c(Cl)c2)NC(=O)CN(C)C(=O)[C@@H]1Cc1ccc(C(F)(F)F)cc1 [PP0290] ([NMeL][Abu][NEtG][Sar][NPrPhe(4-CF3)][Sar][hPhe(3-Cl-4-CF3)]P[Ac5c][NMeGly(cPent)][NMeD]-Morpholide; lactam N-11)	B (a compound having 3 or more and less than 10 is denoted as B)	C (A compound having a KD ratio of 0.1 or more and less than 3 is denoted as C)
CCCN1C(=O)CN(C)C(=O)CN(CC)C(=O)[C@H](CC(F)(F)F)NC(=O)[C@H](CC(C)C)N(C)C(=O)C[C@@H](C(=O)N2CCOCC2)N(C)C(=O)[C@H](C2CCCC2)N(C)C(=O)C2(CCCC2)NC(=O)[C@@H]2CCCN2C(=O)[C@H](CCc2ccc(C(F)(F)F)c(Cl)c2)NC(=O)CN(C)C(=O)[C@@H]1Cc1ccc(C(F)(F)F)cc1 [PP0291] ([NMeL][Abu(4,4,4-F3)][NEtG][Sar][NPrPhe(4-CF3)][Sar][hPhe(3-Cl-4-CF3)]P[Ac5c][NMeGly(cPent)][NMeD]-Morpholide; lactam N-11)	B (a compound having 3 or more and less than 10 is denoted as B)	B (a compound having 3 or more and less than 10 is denoted as B)
CCCN1C(=O)CN(C)C(=O)CN(CC)C(=O)[C@H](C2CCC2)NC(=O)[C@H](CC(C)C)N(C)C(=O)C[C@@H](C(=O)N2CCOCC2)N(C)C(=O)[C@H](C2CCCC2)N(C)C(=O)C2(CCCC2)NC(=O)[C@@H]2CCCN2C(=O)[C@H](CCc2ccc(C(F)(F)F)c(Cl)c2)NC(=O)CN(C)C(=O)[C@@H]1Cc1ccc(C(F)(F)F)cc1 [PP0292] ([NMeL][Gly(cBu)][NEtG][Sar][NPrPhe(4-CF3)][Sar][hPhe(3-Cl-4-CF3)]P[Ac5c][NMeGly(cPent)][NMeD]-Morpholide; lactam N-11)	B (a compound having 3 or more and less than 10 is denoted as B)	C (A compound having a KD ratio of 0.1 or more and less than 3 is denoted as C)
CCCN1C(=O)CN(C)C(=O)CN(CC)C(=O)[C@H](C2CCCC2)NC(=O)[C@H](CC(C)C)N(C)C(=O)C[C@@H](C(=O)N2CCOCC2)N(C)C(=O)[C@H](C2CCCC2)N(C)C(=O)C2(CCCC2)NC(=O)[C@@H]2CCCN2C(=O)[C@H](CCc2ccc(C(F)(F)F)c(Cl)c2)NC(=O)CN(C)C(=O)[C@@H]1Cc1ccc(C(F)(F)F)cc1 [PP0293] ([NMeL][Gly(cPent)][NEtG][Sar][NPrPhe(4-CF3)][Sar][hPhe(3-Cl-4-CF3)]P[Ac5c][NMeGly(cPent)][NMeD]-Morpholide; lactam N-11)	B (a compound having 3 or more and less than 10 is denoted as B)	C (A compound having a KD ratio of 0.1 or more and less than 3 is denoted as C)
CCCN1C(=O)CN(C)C(=O)CN(CC)C(=O)[C@H]([C@@H](C)CC)NC(=O)[C@H](CC(C)C)N(C)C(=O)C[C@@H](C(=O)N2CCOCC2)N(C)C(=O)[C@H](C2CCCC2)N(C)C(=O)C2(CCCC2)NC(=O)[C@@H]2CCN2C(=O)[C@H](CCc2ccc(C(F)(F)F)c(Cl)c2)NC(=O)CN(C)C(=O)[C@@H]1Cc1ccc(C(F)(F)F)cc1 [PP0294] ([NMeL]I[NEtG][Sar][NPrPhe(4-CF3)][Sar][hPhe(3-Cl-4-CF3)][Aze][Ac5c][NMeGly(cPent)][NMeD]-Morpholide; lactam N-11)	B (a compound having 3 or more and less than 10 is denoted as B)	C (A compound having a KD ratio of 0.1 or more and less than 3 is denoted as C)
CCCN1C(=O)CN(C)C(=O)CN(CC)C(=O)[C@H]([C@@H](C)CC)NC(=O)[C@H](CC(C)C)N(C)C(=O)C[C@@H](C(=O)N2CCOCC2)N(C)C(=O)[C@H](C2CCCC2)N(C)C(=O)C2(CCCC2)NC(=O)[C@@H]2CC3(CC3)CN2C(=O)[C@H](CCc2ccc(C(F)(F)F)c(Cl)c2)NC(=O)CN(C)C(=O)[C@@H]1Cc1ccc(C(F)(F)F)cc1 [PP0295] ([NMeL]I[NEtG][Sar][NPrPhe(4-CF3)][Sar][hPhe(3-Cl-4-CF3)][Pro(4-spirocPr)][Ac5c][NMeGly(cPent)][NMeD]-Morpholide; lactam N-11)	B (a compound having 3 or more and less than 10 is denoted as B)	C (A compound having a KD ratio of 0.1 or more and less than 3 is denoted as C)
CCCN1C(=O)CN(C)C(=O)CN(CC)C(=O)[C@H]([C@@H](C)CC)NC(=O)[C@H](CC(C)C)N(C)C(=O)C[C@@H](C(=O)N2CCOCC2)N(C)C(=O)[C@H](C2CCCC2)N(C)C(=O)C2(CCCC2)NC(=O)[C@@H]2C[C@@H](OC)CN2C(=O)[C@H](CCc2ccc(C(F)(F)F)c(Cl)c2)NC(=O)CN(C)C(=O)[C@@H]1Cc1ccc(C(F)(F)F)cc1 [PP0296] ([NMeL]I[NEtG][Sar][NPrPhe(4-CF3)][Sar][hPhe(3-Cl-4-CF3)][Hyp](Me)[Ac5c][NMeGly(cPent)][NMeD]-Morpholide; lactam N-11)	B (a compound having 3 or more and less than 10 is denoted as B)	C (A compound having a KD ratio of 0.1 or more and less than 3 is denoted as C)
